System: mice
Test: not given
Details: mouse, in vivo
Wherever Hot Plate .5 hr (percentage of mice showing analgesia) is given: test concentration or dose not given here.
Wherever Hot Plate 2 hr (percentage of mice showing analgesia) is given: test concentration or dose not given here.
Wherever Tail Flick .5 hr (percentage of analgesia response) is given: test concentration or dose not given here.
Wherever Tail Flick 2 hr (percentage of analgesia response) is given: test concentration or dose not given here.
Wherever Tail Pinch .5 hr (percentage of mice showing analgesia) is given: test concentration or dose not given here.
Wherever Tail Pinch 2 hr (percentage of mice showing analgesia) is given: test concentration or dose not given here.

Compound	activity in the Hot Plate test
COc1ccc(Cl)c2c1CCC(CN1CCCC1)=C2C [reference compound]	marginal activity

Same assay, conditions: mouse, in vivo, ip

Compound	Hot Plate 2 hr (percentage of mice showing analgesia)	Hot Plate .5 hr (percentage of mice showing analgesia)
COc1ccc(Cl)c2c1CCC(CN1CCC(C)CC1)=C2	0	10
COc1ccc(N2CCN(CC3=Cc4c(Cl)ccc(OC)c4CC3)CC2)cc1	0	0
COc1ccc(Cl)c2c1CCC(CN(C)CCN1CCCC1)=C2	0	0
COc1ccc(Cl)c2c1CCC(CN1CCC(O)(c3ccccc3)CC1)=C2	0	50
COc1ccc(Cl)c2c1CCC(CN1CCC(O)(c3ccc(Cl)cc3)CC1)=C2	0	20
CCOC1(c2ccccc2)CCN(CC2=Cc3c(Cl)ccc(OC)c3CC2)CC1	0	50
COc1ccc(Cl)c2c1CCC(CN1CCN(C)CC1)=C2	0	60
COc1ccc(Cl)c2c1CCC(CN1CCN(c3cccc(C(F)(F)F)c3)CC1)=C2	0	10
CCOC(=O)N1CCN(CC2=Cc3c(Cl)ccc(OC)c3CC2)CC1	40	70
COc1ccc(Cl)c2c1CCC(CN1CCC(O)CC1)=C2	0	0
COc1ccc(Cl)c2c1CCC(CN1CCCC(C(N)=O)C1)=C2 (centres unmarked)	0	0
CCC(=O)OC1CCN(CC2=Cc3c(Cl)ccc(OC)c3CC2)CC1	0	0
COc1ccc(Cl)c2c1CCC(CN1CCC(OC(C)=O)(c3ccccc3)CC1)=C2 [drawing 79]	80	100
COc1ccc(Cl)c2c1CCC(CN(C)C)=C2 [N(CH3)2]	0	0
CNC(=O)C1CCN(CC2=Cc3c(Cl)ccc(OC)c3CC2)CC1	0	60
COc1ccc(Cl)c2c1CCC(CN1CCCC1)=C2 [pyrrolidino, 1-(2-[3,4-Dihydro-8-chloro-5-methoxynaphthyl]methyl)pyrrolidine]	0	80
COc1ccc(Cl)c2c1CCC(CN1CC=C(c3ccc(Cl)cc3)CC1)=C2	0	0
COc1ccc(Cl)c2c1CCC(CN1CCC(c3ccccc3)CC1)=C2	0	30
COc1ccc(Cl)c2c1CCC(CN1CCC(C(N)=O)CC1)=C2	70	90
COc1ccc(Cl)c2c1CCC(CN1CCSC1)=C2	0	0

System: mice
Test: not given
Details: mouse, in vivo
Remark: another data set of the same source

Compound	activity in the Tail Flick test
COc1ccc(Cl)c2c1CCC(CN1CCCC1)=C2C [reference compound]	marginal activity

Same assay, conditions: mouse, in vivo, ip

Compound	Tail Flick 2 hr (percentage of analgesia response)	Tail Flick .5 hr (percentage of analgesia response)
COc1ccc(Cl)c2c1CCC(CN1CCC(C)CC1)=C2	0	0
CN1CC[C@]23c4c5ccc(O)c4O[C@H]2[C@@H](O)C=C[C@H]3[C@H]1C5.O=S(=O)(O)O [Morphine Sulfate, reference compound]	100	100
COc1ccc(N2CCN(CC3=Cc4c(Cl)ccc(OC)c4CC3)CC2)cc1	0	0
COc1ccc(Cl)c2c1CCC(CN(C)CCN1CCCC1)=C2	0	0
COc1ccc(Cl)c2c1CCC(CN1CCC(O)(c3ccccc3)CC1)=C2	0	30
COc1ccc(Cl)c2c1CCC(CN1CCC(O)(c3ccc(Cl)cc3)CC1)=C2	0	0
CCOC1(c2ccccc2)CCN(CC2=Cc3c(Cl)ccc(OC)c3CC2)CC1	0	10
COc1ccc(Cl)c2c1CCC(CN1CCN(C)CC1)=C2	0	30
COc1ccc(Cl)c2c1CCC(CN1CCN(c3cccc(C(F)(F)F)c3)CC1)=C2	0	0
CCOC(=O)N1CCN(CC2=Cc3c(Cl)ccc(OC)c3CC2)CC1	0	40
COc1ccc(Cl)c2c1CCC(CN1CCC(O)CC1)=C2	0	0
COc1ccc(Cl)c2c1CCC(CN1CCCC(C(N)=O)C1)=C2 (centres unmarked)	0	0
CCC(=O)OC1CCN(CC2=Cc3c(Cl)ccc(OC)c3CC2)CC1	0	20
COc1ccc(Cl)c2c1CCC(CN1CCC(OC(C)=O)(c3ccccc3)CC1)=C2 [drawing 79]	70	90
COc1ccc(Cl)c2c1CCC(CN(C)C)=C2 [N(CH3)2]	0	0
CNC(=O)C1CCN(CC2=Cc3c(Cl)ccc(OC)c3CC2)CC1	0	40
COc1ccc(Cl)c2c1CCC(CN1CCCC1)=C2 [pyrrolidino, 1-(2-[3,4-Dihydro-8-chloro-5-methoxynaphthyl]methyl)pyrrolidine]	0	60
COc1ccc(Cl)c2c1CCC(CN1CC=C(c3ccc(Cl)cc3)CC1)=C2	0	0
COc1ccc(Cl)c2c1CCC(CN1CCC(c3ccccc3)CC1)=C2	0	0
COc1ccc(Cl)c2c1CCC(CN1CCC(C(N)=O)CC1)=C2	0	70
COc1ccc(Cl)c2c1CCC(CN1CCSC1)=C2	0	0

System: Rats
Test: not given
Set-up: Rat Jump .5 hr (current at which the animal first jumps) / Rat Jump .5 hr, second value printed in parentheses / Rat Jump 2 hr (current at which the animal first jumps): unit not given here
Details: in vivo

Compound	activity in the Rat Jump Test
COc1ccc(Cl)c2c1CCC(CN1CCCC1)=C2C [reference compound]	inactive

Same assay, conditions: in vivo, ip

Compound	Rat Jump 2 hr (current at which the animal first jumps)	Rat Jump .5 hr (current at which the animal first jumps)	Rat Jump .5 hr, second value printed in parentheses
COc1ccc(Cl)c2c1CCC(CN1CCC(C)CC1)=C2	1.2	1.2	–
CN1CC[C@]23c4c5ccc(O)c4O[C@H]2[C@@H](O)C=C[C@H]3[C@H]1C5.O=S(=O)(O)O [Morphine Sulfate, reference compound]	–	> 2.2	–
COc1ccc(N2CCN(CC3=Cc4c(Cl)ccc(OC)c4CC3)CC2)cc1	1.2	1.2	–
COc1ccc(Cl)c2c1CCC(CN(C)CCN1CCCC1)=C2	1.2	1.2	–
COc1ccc(Cl)c2c1CCC(CN1CCC(O)(c3ccccc3)CC1)=C2	1.2	1.2	–
COc1ccc(Cl)c2c1CCC(CN1CCC(O)(c3ccc(Cl)cc3)CC1)=C2	1.6	1.2	–
CCOC1(c2ccccc2)CCN(CC2=Cc3c(Cl)ccc(OC)c3CC2)CC1	1.2	1.2	–
COc1ccc(Cl)c2c1CCC(CN1CCN(C)CC1)=C2	1.2	1.2	–
COc1ccc(Cl)c2c1CCC(CN1CCC(C(=O)N(C)C)CC1)=C2	1.2	1.2	–
COc1ccc(Cl)c2c1CCC(CN1CCN(c3cccc(C(F)(F)F)c3)CC1)=C2	1.2	1.2	–
CCOC(=O)N1CCN(CC2=Cc3c(Cl)ccc(OC)c3CC2)CC1	1.2	1.2	–
COc1ccc(Cl)c2c1CCC(CN1CCC(O)CC1)=C2	1.2	1.2	–
COc1ccc(Cl)c2c1CCC(CN1CCCC(C(N)=O)C1)=C2 (centres unmarked)	2.2	1.6	–
CCC(=O)OC1CCN(CC2=Cc3c(Cl)ccc(OC)c3CC2)CC1	1.2	1.2	–
COc1ccc(Cl)c2c1CCC(CN1CCC(C(N)=O)(N3CCCCC3)CC1)=C2	1.6	1.2	–
COc1ccc(Cl)c2c1CCC(CN1CCC(OC(C)=O)(c3ccccc3)CC1)=C2 [drawing 79]	> 2.2	> 2.2	–
COc1ccc(Cl)c2c1CCC(CN(C)C)=C2 [N(CH3)2]	0.6	1.2	–
CNC(=O)C1CCN(CC2=Cc3c(Cl)ccc(OC)c3CC2)CC1	1.2	1.2	–
COc1ccc(Cl)c2c1CCC(CN1CCCC1)=C2 [pyrrolidino, 1-(2-[3,4-Dihydro-8-chloro-5-methoxynaphthyl]methyl)pyrrolidine]	2.2	1.2	2.2
COc1ccc(Cl)c2c1CCC(CN1CC=C(c3ccc(Cl)cc3)CC1)=C2	1.2	1.2	–
COc1ccc(Cl)c2c1CCC(CN1CCC(c3ccccc3)CC1)=C2	1.2	1.2	–
COc1ccc(Cl)c2c1CCC(CN1CCC(C(=O)N3CCOCC3)CC1)=C2	1.2	1.2	–
COc1ccc(Cl)c2c1CCC(CN1CCC(C(N)=O)CC1)=C2	0.6	0.6	–
COc1ccc(Cl)c2c1CCC(CN1CCSC1)=C2	1.2	1.2	–

System: mice
Test: animal or person
Assay type: in vivo, mouse
Details: mouse, in vivo, ip

Compound	Tail Pinch 2 hr (percentage of mice showing analgesia)	Tail Pinch .5 hr (percentage of mice showing analgesia)
COc1ccc(Cl)c2c1CCC(CN1CCC(C)CC1)=C2	0	0
COc1ccc(N2CCN(CC3=Cc4c(Cl)ccc(OC)c4CC3)CC2)cc1	0	0
COc1ccc(Cl)c2c1CCC(CN(C)CCN1CCCC1)=C2	0	0
COc1ccc(Cl)c2c1CCC(CN1CCC(O)(c3ccccc3)CC1)=C2	0	0
COc1ccc(Cl)c2c1CCC(CN1CCC(O)(c3ccc(Cl)cc3)CC1)=C2	0	0
CCOC1(c2ccccc2)CCN(CC2=Cc3c(Cl)ccc(OC)c3CC2)CC1	20	0
COc1ccc(Cl)c2c1CCC(CN1CCN(C)CC1)=C2	0	80
COc1ccc(Cl)c2c1CCC(CN1CCN(c3cccc(C(F)(F)F)c3)CC1)=C2	0	0
CCOC(=O)N1CCN(CC2=Cc3c(Cl)ccc(OC)c3CC2)CC1	0	0
COc1ccc(Cl)c2c1CCC(CN1CCC(O)CC1)=C2	0	0
COc1ccc(Cl)c2c1CCC(CN1CCCC(C(N)=O)C1)=C2 (centres unmarked)	0	0
CCC(=O)OC1CCN(CC2=Cc3c(Cl)ccc(OC)c3CC2)CC1	0	0
COc1ccc(Cl)c2c1CCC(CN1CCC(OC(C)=O)(c3ccccc3)CC1)=C2 [drawing 79]	100	100
COc1ccc(Cl)c2c1CCC(CN(C)C)=C2 [N(CH3)2]	0	0
CNC(=O)C1CCN(CC2=Cc3c(Cl)ccc(OC)c3CC2)CC1	0	0
COc1ccc(Cl)c2c1CCC(CN1CCCC1)=C2 [pyrrolidino, 1-(2-[3,4-Dihydro-8-chloro-5-methoxynaphthyl]methyl)pyrrolidine]	0	20
COc1ccc(Cl)c2c1CCC(CN1CC=C(c3ccc(Cl)cc3)CC1)=C2	0	0
COc1ccc(Cl)c2c1CCC(CN1CCC(c3ccccc3)CC1)=C2	0	0
COc1ccc(Cl)c2c1CCC(CN1CCC(C(N)=O)CC1)=C2	0	0
COc1ccc(Cl)c2c1CCC(CN1CCSC1)=C2	0	0

Reference: patent US4022791A (priority 1975, dated 1977)
